The test has as its system CCHF-vOTU. In words: PubChem AID 743476. The conditions noted are these: Recombinant CCHFV vOTU, PEP-AMC fluorescence cleavage, with PEP-AMC substrate, stronger effect = higher value.

The source made the active and inactive calls. No rule for the calls is given here.

For 23 compounds, inhibition results are on record in PubChem BioAssay AID743476 (The Scripps Research Institute Molecular Screening Center, 2014).

The inhibition is the change of the read-out against control, counted positive when it falls. For the compound `COc1cc(NC(=O)COC(=O)c2ccc([N+](=O)[O-])s2)cc(OC)c1OC`, the inhibition was 7.4% (inactive) (Assay 1, at 6.6 µM); 4.53% (inactive) (Assay 2, at 6.6 µM); 11.9% (inactive) (Assay 3, at 13.2 µM).

On to `O=C1OC(Nc2cc(Br)cc3cccnc23)c2ccccc21` (stereo not drawn), for which the inhibition (Assay 1, at 5.23 µM) is 21.7%; the inhibition (Assay 2, at 5.23 µM) is 16.9% (inactive); the inhibition (Assay 3, at 10.46 µM) was 10.9% (inactive).

Consider `CCC(CNc1cc(OC)cc2cccnc12)NC1CCCCC1` (stereo not drawn), for which the inhibition was -27% (inactive) (Assay 1, at 6.32 µM); 13.6% (inactive) (Assay 2, at 6.32 µM); 52.4% (Assay 3, at 12.64 µM).

Take `CC(=O)c1ccc(NC(=S)Nc2cccc3cnccc23)cc1`: the inhibition runs as follows: (Assay 1, at 6.84 µM) 0.13% (inactive); (Assay 2, at 6.84 µM) 3.01% (inactive); (Assay 3, at 13.68 µM) 6.6% (inactive).

Turning to `Cc1cnc(C2OCCO2)c2cccc(N)c12`, the inhibition (Assay 1, at 2.56 µM) is 16.2% (inactive); the inhibition (Assay 2, at 2.56 µM) is 0.6% (inactive); the inhibition (Assay 3, at 5.12 µM) is 1% (inactive).

In the case of `O=C(c1ccco1)[C@@H]1[C@@H]2C(=O)N(c3ccc(Br)cc3)C(=O)[C@@H]2C2c3ccccc3C=CN21` (stereo partly drawn), the inhibition (Assay 1, at 5.26 µM) is -13.1% (inactive) and the inhibition (Assay 2, at 5.26 µM) was 37.6%.

As to `COc1cc(Br)c(C(=O)c2nccc3cc(OC)c(OC)cc23)cc1OC`, the inhibition (Assay 1, at 0.27 µM) was 31.9% and the inhibition (Assay 2, at 0.27 µM) is 25.2%.

As to `Cc1ccc(N2C(=O)[C@@H]3[C@H](C2=O)C2c4ccccc4C=CN2[C@@H]3C(=O)c2ccco2)cc1` (stereo partly drawn), the inhibition is 8.15% (inactive) (Assay 1, at 4.21 µM); 18.6% (inactive) (Assay 2, at 4.21 µM); 44.7% (Assay 3, at 8.42 µM).

`Cc1ccccc1-c1cc2c(nn1)-c1ccccc1C2=O`: the inhibition (Assay 1, at 0.46 µM) was 27.6% and the inhibition (Assay 2, at 0.46 µM) is 24.5%.

For the compound `O=C(COC(=O)c1ccc([N+](=O)[O-])s1)Nc1ncc(C(F)(F)F)cc1Cl`, the inhibition was 23.2% (Assay 1, at 8.84 µM); 19.8% (inactive) (Assay 2, at 8.84 µM); 30.5% (Assay 3, at 17.68 µM).

Turning to `Cc1ccc2c(c1C)-c1c(ccc(C)c1C)C(=O)C2=O`, the inhibition by setting is: (Assay 1, at 7.79 µM) -37.1% (inactive); (Assay 2, at 7.79 µM) 18% (inactive); (Assay 3, at 15.58 µM) 38.4%.

Consider `NS(=O)(=O)c1ccc(NC2=CC(=O)C(=O)c3ccccc32)cc1`, for which the inhibition runs as follows: (Assay 1, at 4.85 µM) 6.01% (inactive); (Assay 2, at 4.85 µM) 30.6%.

With `Cc1ccc(NC2=CC(=O)C(=O)c3ccccc32)cc1`, the inhibition was 20% (Assay 1, at 7.14 µM) and 51.9% (Assay 2, at 7.14 µM).

Consider `O=C(COC(=O)c1ccc([N+](=O)[O-])s1)Nc1ccc(F)cc1`, for which the inhibition is, setting by setting: (Assay 1, at 7.8 µM) 9.26% (inactive); (Assay 2, at 7.8 µM) 9.2% (inactive); (Assay 3, at 15.6 µM) 17.4% (inactive).

In the case of `Cn1nc(-c2ccccn2)nc2c(=O)n(C)c(=O)nc1-2`, the inhibition is 63.3% (Assay 1, at 0.37 µM) and 56.2% (Assay 2, at 0.37 µM).

Consider `COc1ccc2noc3c2c1C(=O)c1ccccc1-3`, for which the inhibition runs as follows: (Assay 1, at 3.08 µM) 16.5% (inactive); (Assay 2, at 3.08 µM) 15.2% (inactive); (Assay 3, at 6.16 µM) 64.3%.

For `CCn1nc(/C=C/c2ccccc2)nc2c(=O)n(C)c(=O)nc1-2`, the inhibition reads like this: (Assay 1, at 0.28 µM) 58.4%; (Assay 2, at 0.28 µM) 91.9%.

Regarding `O=C(NC1=C(NC2CCS(=O)(=O)C2)C(=O)c2ccccc2C1=O)c1ccccc1` (stereo not drawn), the inhibition was 4.88% (inactive) (Assay 1, at 3.9 µM) and 22.6% (Assay 2, at 3.9 µM).

As to `O=c1[nH]c(Nc2ccccc2)cc2cc(Br)ccc12`, the inhibition is 34.1% (Assay 2, at 1 µM) and 42.6% (Assay 3, at 2 µM).

In the case of `S=C(Nc1ccc(Cl)cc1)Nc1cccc2cnccc12`, the inhibition reads like this: (Assay 1, at 6.44 µM) -17.9% (inactive); (Assay 2, at 6.44 µM) 5.81% (inactive); (Assay 3, at 12.88 µM) 7.7% (inactive).

For the compound `O=C1Cc2ccccc2C(=O)N1`, the inhibition was 38.8% (Assay 1, at 0.4 µM) and 54.3% (Assay 2, at 0.4 µM).

Regarding `CC1(C)C=C2C(=NN(c3ccccc3)C(N)=C2C#N)CO1`, the inhibition runs as follows: (Assay 1, at 1.83 µM) -4.71% (inactive); (Assay 2, at 1.83 µM) 23.4%.

With `CCOC(=O)C1=C(COC(=O)c2ccc([N+](=O)[O-])s2)NC(=O)NC1C` (stereo not drawn), the inhibition by setting is: (Assay 1, at 7.84 µM) 5.42% (inactive); (Assay 2, at 7.84 µM) 9.9% (inactive); (Assay 3, at 15.68 µM) 6% (inactive).
